No end group written: not given here.
How the values were obtained:
Parameters in all cases: key: 0 or ‘−’ no agglutination; 0 or ‘−’ no agglutination; 1+ or 3=very weak agglutination; 1+ or 3=very weak agglutination; 2+ or 5=weak agglutination; 2+ or 5=weak agglutination; 3+ or 8=moderate strong agglutination; 3+ or 8=moderate strong agglutination; 4+ or 10/12=strong agglutination; 4+ or 10/12=strong agglutination; 4+ or 10/12=strong agglutination
[1] = tested on: natural Mi III antibody reactive human serums; assay: Positive serum reactivity of modified RBCs in the field; format: cell-based; settings: 22 at 50, 17 and 24 at 200 μg/ml; 3 h RT then 18 h 4° C.
Procedure: (§1) The suspensions are either: • 1. incubated for 2 hours at 37° C. before being washed and suspended in a cell medium for serological analysis at a concentration of 0.8 to 3% (Method 1); or • 2. incubated for 3 to 4 hours at room temperature (circa 25° C.) followed by 18 hours at 4° C. before being washed and suspended in a cell medium for serological analysis at a concentration of 0.8 to 3% (Method 2).
(§2) Serological reactions are graded or scored by either of two established systems (0 or ‘−’ no agglutination, 1+ or 3=very weak agglutination, 2+ or 5=weak agglutination, 3+ or 8=moderate strong agglutination, 4+ or 10/12=strong agglutination)

[2] = tested on: TAP1 serum (Taiwan Miltenberger antibody positive sample); assay: Anti-MUT serum (TAP1) reactivity of modified RBCs (saline and AHG); format: cell-based, human; settings: construct 50 μg/ml
Procedure: as §1, §2

CSL monoclonal anti-A = assay: BioVue serology of RBCs modified with Atri-lipid constructs against anti-A; format: cell-based
Procedure: To test the hypothesis solutions of four different trisaccharide (Atri)-lipid constructs were prepared as 50 μM, 10 μM and 5 μM solutions in Celpresol™. Modified red blood cells were then prepared by contacting 0.6 mls (pcv) of washed RBCs with 0.6 mls of the relevant solution. The mixtures were incubated at 37° C. for 2 hours and then washed 3 times to provide a modified cell suspension.
The modified cell suspensions were prepared in 0.8% in Celpresol LISS™ suitable for BioVue serology cards. A volume of 0.05 mls of CSL monoclonal anti-A (026129801) followed by 0.05 mls of modified cell suspension was applied to each card. Reactions were recorded following centrifugation in a BioVue cassette centrifuge (Table 29).
There was no significant gain with CMG(2) compared with CMG(4). There was a minor, but not significant change for MCMG (2).

M24: DOPE peptide-lipid construct: Hil peptide EETGETGQLV, leader c, spacer CMG(2) (EETGETGQLVC; also: DOPE peptide-lipid construct via leader Cys, spacer CMG(2))
0: score vs Mi III reactive serum 912485657-9 [1] | score vs Mi III reactive serum 914146821-8 [1] | score vs Mi III reactive serum 922390844-5 [1] | score vs Mi III reactive serum 926190919-0 [1] | score vs Mi III reactive serum 926555294-1 [1] | score vs Mi III reactive serum 927175131-4 [1] | score vs Mi III reactive serum 927299700-1 [1] | score vs Mi III reactive serum 927516053-2 [1] | score vs Mi III reactive serum 927619701-8 [1] | score vs Mi III reactive serum 932360876-4 [1] | score vs Mi III reactive serum 932467774-5 [1] | score vs Mi III reactive serum 932809044-1 [1] | score vs Mi III reactive serum 942223755-1 [1] | score vs Mi III reactive serum 942404708-4 (row interpreted Mur) [1] | score vs Mi III reactive serum 942404708-4 (row interpreted other) [1] | score vs Mi III reactive serum 942421413-0 [1] | score vs Mi III reactive serum 942433813-3 [1] | score vs Mi III reactive serum 942442720-2 [1] | score vs Mi III reactive serum 9322338631 [1] | score vs Mi III reactive serum 9325490091 [1] | score vs Mi III reactive serum 9327986660 [1] | score vs Mi III reactive serum 9328791834 [1] | score vs Mi III reactive serum 9424248012 [1] | score vs Mi III reactive serum 9424396133 [1] | score vs Mi III reactive serum 9427613497 [1] | score vs Mi III reactive serum 9427615156 [1] | TAP 1 Serum, AHG score [2] | TAP 1 Serum, Saline score [2]
3: score vs Mi III reactive serum 942423002-4 [1] | score vs Mi III reactive serum 942762589-1 [1] | score vs Mi III reactive serum 9328154853 [1]
5: score vs Mi III reactive serum 942448627-8 [1] | score vs Mi III reactive serum 9328118428 [1] | score vs Mi III reactive serum 9424292604 [1] | score vs Mi III reactive serum 9427455417 [1] | score vs Mi III reactive serum S-3 [1]
8: score vs Mi III reactive serum 942433855-3 [1] | score vs Mi III reactive serum 942753165-4 [1] | score vs Mi III reactive serum 9425256505 [1]

Adipate
8: Serological result, anti-A Neat (CSL monoclonal anti-A; construct 5 μM) | Serological result, reciprocal of dilution of anti-A 2 (CSL monoclonal anti-A; construct 5 μM) | Serological result, reciprocal of dilution of anti-A 8 (CSL monoclonal anti-A; construct 10 μM) | Serological result, reciprocal of dilution of anti-A 16 (CSL monoclonal anti-A; construct 10 μM) | Serological result, reciprocal of dilution of anti-A 32 (CSL monoclonal anti-A; construct 10 μM) | Serological result, reciprocal of dilution of anti-A 64 (CSL monoclonal anti-A; construct 10 μM) | Serological result, reciprocal of dilution of anti-A 128 (CSL monoclonal anti-A; construct 50 μM) | Serological result, reciprocal of dilution of anti-A 256 (CSL monoclonal anti-A; construct 50 μM)
5: Serological result, reciprocal of dilution of anti-A 4 (CSL monoclonal anti-A; construct 5 μM)
10: Serological result, anti-A Neat (CSL monoclonal anti-A; construct 10 μM) | Serological result, reciprocal of dilution of anti-A 2 (CSL monoclonal anti-A; construct 10 μM) | Serological result, reciprocal of dilution of anti-A 4 (CSL monoclonal anti-A; construct 10 μM) | Serological result, reciprocal of dilution of anti-A 64 (CSL monoclonal anti-A; construct 50 μM)
12: Serological result, anti-A Neat (CSL monoclonal anti-A; construct 50 μM) | Serological result, reciprocal of dilution of anti-A 2 (CSL monoclonal anti-A; construct 50 μM) | Serological result, reciprocal of dilution of anti-A 4 (CSL monoclonal anti-A; construct 50 μM) | Serological result, reciprocal of dilution of anti-A 8 (CSL monoclonal anti-A; construct 50 μM) | Serological result, reciprocal of dilution of anti-A 16 (CSL monoclonal anti-A; construct 50 μM) | Serological result, reciprocal of dilution of anti-A 32 (CSL monoclonal anti-A; construct 50 μM)
3: Serological result, reciprocal of dilution of anti-A 8 (CSL monoclonal anti-A; construct 5 μM) | Serological result, reciprocal of dilution of anti-A 128 (CSL monoclonal anti-A; construct 10 μM) | Serological result, reciprocal of dilution of anti-A 512 (CSL monoclonal anti-A; construct 50 μM)
